According to US12077503B2, “Substituted cyclic amides and their use as herbicides” (FMC CORPORATION, priority 2015, dated 2024):
Read-outs that look alike come from different tables or passages of the source.

Columns and labels:
Type in all cases: in vivo
[1] = system: wheat (Triticum aestivum); assay: Test A postemergence; conditions: Triticum aestivum, post-emergence, 240 h, 125 g ai/ha, postemergence
Procedure, shortened: (§1)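 Greenhouse, ~10 d after spray; visual injury vs untreated controls, 0 = no effect, 100 = complete control. Preemergence: directed soil spray over planted seeds. Postemergence: plants 2–10 cm, 1–2 leaf stage. Loam/sand blend. Compound in non-phytotoxic solvent with surfactant.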

[2] = system: ragweed (common ragweed, Ambrosia elatior); assay: Test A postemergence; conditions: Ambrosia artemisiifolia, post-emergence, 240 h, postemergence; for pest or weed control at 125 g/ha: 125 g ai/ha
Procedure, shortened: as §1

[3] = system: Galium (catchweed bedstraw, Galium aparine); assay: Test A postemergence; conditions: Galium, post-emergence, 240 h, postemergence; for pest or weed control at 125 g/ha: 125 g ai/ha
Procedure, shortened: as §1

Kochia (Kochia scoparia) = assay: Test A postemergence; conditions: Bassia scoparia, post-emergence, 240 h, postemergence; for pest or weed control at 125 g/ha: 125 g ai/ha
Procedure, shortened: as §1

[4] = system: barnyardgrass (Echinochloa crus-galli); assay: Test A postemergence; conditions: Echinochloa crus-galli, post-emergence, 240 h, postemergence; for pest or weed control at 125 g/ha: 125 g ai/ha
Procedure, shortened: as §1

corn (Zea mays) = assay: Test A postemergence; conditions: Zea mays, post-emergence, 240 h, postemergence
Procedure, shortened: as §1

[5] = system: ryegrass, Italian (Italian ryegrass, Lolium multiflorum); assay: Test A postemergence; conditions: Lolium multiflorum, post-emergence, 240 h, postemergence; for pest or weed control at 125 g/ha: 125 g ai/ha
Procedure, shortened: as §1

[6] = system: giant foxtail (Setaria faberii); assay: Test A postemergence; conditions: Setaria faberi, post-emergence, 240 h, postemergence; for pest or weed control at 125 g/ha: 125 g ai/ha
Procedure, shortened: as §1

[7] = system: pigweed (Amaranthus retroflexus); assay: Test A postemergence; conditions: Amaranthus retroflexus, post-emergence, 240 h, postemergence; for pest or weed control at 125 g/ha: 125 g ai/ha
Procedure, shortened: as §1

[8] = system: blackgrass (Alopecurus myosuroides); assay: Test A postemergence; conditions: Alopecurus myosuroides, post-emergence, 240 h, postemergence; for pest or weed control at 125 g/ha: 125 g ai/ha
Procedure, shortened: as §1

[9] = system: ducksalad (Heteranthera limosa); assay: Test B flooded paddy test; conditions: Heteranthera limosa, 250 g ai/ha, Flood, read-out: Ducksalad plant response rating
Procedure, shortened: (§2)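 2-leaf plants; pots flooded 3 cm over soil; cpd added to paddy water; depth held; greenhouse 13–15 d; visual rating vs controls, 0 = no effect, 100 = complete control.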

[10] = system: barnyardgrass (Echinochloa crus-galli); assay: Test B flooded paddy test; conditions: Echinochloa crus-galli, 250 g ai/ha, Flood, read-out: Barnyardgrass plant response rating
Procedure, shortened: as §2

[11] = system: sedge, umbrella (small-flower umbrella sedge, Cyperus difformis); assay: Test B flooded paddy test; conditions: Cyperus difformis, 250 g ai/ha, Flood, read-out: Sedge, Umbrella plant response rating
Procedure, shortened: as §2

rice (Oryra sativa) = assay: Test B flooded paddy test; conditions: Oryza sativa, 250 g ai/ha, Flood, read-out: Rice plant response rating
Procedure, shortened: as §2

[12] = 0 to 100 scale where 0 is no effect and 100 is complete control
[13] = scale of 0 to 100 where 0 is no effect and 100 is complete control

Cc1cc([C@H]2CNC(=O)[C@@H]2C(=O)Nc2ccccc2C(F)(F)F)ccc1Cl [Compound 1245]
40%: pest or weed control at 500 g/ha (Kochia (Kochia scoparia); 500 g ai/ha, 0 to 100 scale, 0 is no effect, 100 is complete control, read-out: Kochia plant response rating) | pest or weed control at 125 g/ha ([4]; visual injury vs untreated controls after approx. 10 d, 0 = no effect, 100 = complete control, read-out: Barnyardgrass plant response rating (0 to 100 scale))
0%: plant injury at 125 g/ha ([1]; visual injury vs untreated controls after approx. 10 d, 0 = no effect, 100 = complete control, read-out: Wheat plant response rating (0 to 100 scale)) | pest or weed control at 125 g/ha ([2]; visual injury vs untreated controls after approx. 10 d, 0 = no effect, 100 = complete control, read-out: Ragweed plant response rating (0 to 100 scale)) | pest or weed control at 125 g/ha (Kochia (Kochia scoparia); visual injury vs untreated controls after approx. 10 d, 0 = no effect, 100 = complete control, read-out: Kochia plant response rating (0 to 100 scale)) | plant injury at 125 g/ha (corn (Zea mays); 125 g ai/ha, visual injury vs untreated controls after approx. 10 d, 0 = no effect, 100 = complete control, read-out: Corn plant response rating (0 to 100 scale)) | plant injury at 500 g/ha (corn (Zea mays); 500 g ai/ha, 0 to 100 scale, 0 is no effect, 100 is complete control, read-out: Corn plant response rating) | pest or weed control at 125 g/ha ([5]; visual injury vs untreated controls after approx. 10 d, 0 = no effect, 100 = complete control, read-out: Ryegrass, Italian plant response rating (0 to 100 scale)) | pest or weed control at 500 g/ha ([5]; 500 g ai/ha, 0 to 100 scale, 0 is no effect, 100 is complete control, read-out: Ryegrass, Italian plant response rating) | pest or weed control at 125 g/ha ([7]; visual injury vs untreated controls after approx. 10 d, 0 = no effect, 100 = complete control, read-out: Pigweed plant response rating (0 to 100 scale)) | pest or weed control at 500 g/ha ([7]; 500 g ai/ha, 0 to 100 scale, 0 is no effect, 100 is complete control, read-out: Pigweed plant response rating) | pest or weed control at 250 g/ha [10, 12] | pest or weed control at 250 g/ha [11, 12] | pest or weed control at 250 g/ha (rice (Oryra sativa); [12])
60%: pest or weed control at 500 g/ha ([6]; 500 g ai/ha, 0 to 100 scale, 0 is no effect, 100 is complete control, read-out: Foxtail, Giant plant response rating) | pest or weed control at 500 g/ha ([8]; 500 g ai/ha, 0 to 100 scale, 0 is no effect, 100 is complete control, read-out: Blackgrass plant response rating)
90%: pest or weed control at 500 g/ha ([4]; 500 g ai/ha, 0 to 100 scale, 0 is no effect, 100 is complete control, read-out: Barnyardgrass plant response rating) | pest or weed control at 250 g/ha [9, 12]
50%: pest or weed control at 500 g/ha ([2]; 500 g ai/ha, 0 to 100 scale, 0 is no effect, 100 is complete control, read-out: Ragweed plant response rating) | pest or weed control at 500 g/ha ([3]; 500 g ai/ha, 0 to 100 scale, 0 is no effect, 100 is complete control, read-out: Galium plant response rating)
20%: pest or weed control at 125 g/ha ([6]; visual injury vs untreated controls after approx. 10 d, 0 = no effect, 100 = complete control, read-out: Foxtail, Giant plant response rating (0 to 100 scale))
30%: pest or weed control at 125 g/ha ([3]; visual injury vs untreated controls after approx. 10 d, 0 = no effect, 100 = complete control, read-out: Galium plant response rating (0 to 100 scale)) | pest or weed control at 125 g/ha ([8]; visual injury vs untreated controls after approx. 10 d, 0 = no effect, 100 = complete control, read-out: Blackgrass plant response rating (0 to 100 scale))

C=CCN1C[C@H](c2ccc(OC)c(F)c2)[C@@H](C(=O)Nc2cccc(F)c2F)C1=O [Compound 722]
20%: pest or weed control at 125 g/ha ([4]; visual injury after approximately 10 d, 0 to 100 scale (0 no effect, 100 complete control), read-out: Plant response rating, Barnyardgrass)
0%: plant injury at 125 g/ha ([1]; visual injury after approximately 10 d, 0 to 100 scale (0 no effect, 100 complete control), read-out: Plant response rating, Wheat) | pest or weed control at 125 g/ha ([2]; visual injury after approximately 10 d, 0 to 100 scale (0 no effect, 100 complete control), read-out: Plant response rating, Ragweed) | pest or weed control at 125 g/ha ([3]; visual injury after approximately 10 d, 0 to 100 scale (0 no effect, 100 complete control), read-out: Plant response rating, Galium) | pest or weed control at 125 g/ha (Kochia (Kochia scoparia); visual injury after approximately 10 d, 0 to 100 scale (0 no effect, 100 complete control), read-out: Plant response rating, Kochia) | Corn plant response rating (crop injury, 0 = no effect, 100 = complete kill) at 125 g/ha (corn (Zea mays); 125 g ai/ha, visual injury after approximately 10 d, 0 to 100 scale (0 no effect, 100 complete control)) | pest or weed control at 125 g/ha ([5]; visual injury after approximately 10 d, 0 to 100 scale (0 no effect, 100 complete control), read-out: Plant response rating, Ryegrass, Italian) | pest or weed control at 125 g/ha ([6]; visual injury after approximately 10 d, 0 to 100 scale (0 no effect, 100 complete control), read-out: Plant response rating, Foxtail, Giant) | pest or weed control at 125 g/ha ([7]; visual injury after approximately 10 d, 0 to 100 scale (0 no effect, 100 complete control), read-out: Plant response rating, Pigweed) | pest or weed control at 125 g/ha ([8]; visual injury after approximately 10 d, 0 to 100 scale (0 no effect, 100 complete control), read-out: Plant response rating, Blackgrass) | pest or weed control at 250 g/ha [9, 13] | pest or weed control at 250 g/ha [10, 13] | pest or weed control at 250 g/ha [11, 13] | pest or weed control at 250 g/ha (rice (Oryra sativa); [13])
